Data: US20080119508A1, “Multi-Route Administration Of Immune Response Modifier Compounds” (3M INNOVATIVE PROPERTIES COMPANY, priority 2004, published 2008)

Tested on: mouse colon carcinoma-26 cells (MC26) expressing luciferase
Experiment: MC26-luciferase intradermal tumor model, in vivo photon counts (tumor growth index)
Design: species or system Balb/c mice
Settings: combination of topical 5% IRM1 (30 microliters at tumor site) and subcutaneous IRM1 10 mg/kg, compared with single routes and vehicles; day 6 results in FIG. 1
Procedure: Mice were divided into five groups: topical vehicle, subcutaneous vehicle (SQ vehicle), IRM1 topical (topical IRM1), IRM1 subcutaneous (SQ IRM1), and IRM1 topical and subcutaneous (topical+SQ IRM1). Eighteen hours after injection of the cells, 30 microliters of vehicle or 5% IRM1 topical formulations, described in Table 3, was applied to the tumor site. Six hours later, mice were injected subcutaneously with 10 millograms per kilogram of IRM1 in a 1 milligram per milliliter IRM1, 0.03M citrate buffered saline solution or a vehicle 0.03M citrate buffered saline solution. On days 1, 5, and 6 mice were anesthetized with vaporized 3% isoflurane and in vivo photon counts of luciferin were measured using a Xenogen IVIS imaging system (Alameda, Calif.) following the manufacturer's protocol. The tumor growth index for each treatment group was calculated by dividing each group's day 5 or day 6 tumor photon counts by their day 1 tumor photon counts.

SMILES: CCc1nc2c(N)nc3ccccc3c2n1CCCCNS(C)(=O)=O [IRM1, N-[4-(4-amino-2-ethyl-1H-imidazo[4,5-c]quinolin-1-yl)butyl]methanesulfonamide]
- tumor growth index (day 5 or day 6 tumor photon counts divided by day 1 tumor photon counts): surprising benefit
